Key:
[1] = RP-TLC chromatographic parameter of lipophilicity (RMW), Soczewiński–Wachtmeister extrapolation; type: physicochemical; parameters: key: RM = log((1−Rf)/Rf), extrapolated via Soczewiński–Wachtmeister equation
From the text: As part of the continuation of this study, we attempted to use the experimental, i.e., chromatographic method to determine the lipophilicity parameter of five commercially available neuroleptics: fluphenazine, triflupromazine, trifluoperazine, flupentixol and zuclopenthixol. As described in the Materials and Methods Section, we successfully applied thin-layer chromatography in a reverse-phase system (RP-TLC) and various systems containing chromatographic plates: RP-2F254, RP-8F254 and RP-18F254. […] The chromatographic parameter of lipophilicity RMW obtained under these conditions, using Soczewiński-Wachtmeister's equation, is presented in Table 5. […] Sufficient linearity of these relationships was confirmed by a high correlation coefficient (r), significant p-values, a low standard error of estimate and a high Fisher F-distribution value. […] The content of organic modifier varied from 40% to 90% in 5% increments. Five microliters of each sample solution was spotted as separate spots with a 5 mm width. Plates were developed at ambient temperature (20 ± 2 °C) to a distance of 70 mm in a horizontal chamber ([…], Switzerland) and then visualized under UV light (λ = 254 nm). All measurements were performed in triplicate. The mean value of the retardation factor (Rf) of each compound was used to calculate the RM values:(1) […] The characteristic of the obtained linear plots are given in the Supplementary Materials as Tables S2-S6.

[2] = parameters: method as in earlier work; conditions: logP in n-octanol-water, DrugBank; cited from earlier work
[3] = RP-2F254 plates, 1,4-dioxane–TRIS buffer (pH 7.4)
[4] = RP-2F254 plates, acetone–TRIS buffer (pH 7.4)
[5] = RP-2F254 plates, acetonitrile–TRIS buffer (pH 7.4)
[6] = RP-8F254 plates, 1,4-dioxane–TRIS buffer (pH 7.4)
[7] = RP-8F254 plates, acetone–TRIS buffer (pH 7.4)
[8] = RP-8F254 plates, acetonitrile–TRIS buffer (pH 7.4)
[9] = RP-18F254 plates, 1,4-dioxane–TRIS buffer (pH 7.4)
[10] = RP-18F254 plates, acetone–TRIS buffer (pH 7.4)
[11] = RP-18F254 plates, acetonitrile–TRIS buffer (pH 7.4)

| SMILES | RMW [1, 3] | RMW [1, 4] | RMW [1, 5] | RMW [1, 6] | RMW [1, 7] | RMW [1, 8] | RMW [1, 9] | RMW [1, 10] | RMW [1, 11] | logPexp [2] | other results |
| --- | --- | --- | --- | --- | --- | --- | --- | --- | --- | --- | --- |
| OCCN1CCN(CC/C=C2/c3ccccc3Sc3ccc(C(F)(F)F)cc32)CC1 [Flupentixol, flupentixol] | 2.782 | 2.829 | −0.427 | 2.363 | 2.702 | −1.165 | 2.468 | 2.762 | −1.058 | 4.51 | RMW ([1]; RP-2F254 plates, 1,4-dioxane–TRIS buffer (pH 7.4), listed as flupentixol): 2.782±0.094; RMW ([1]; RP-2F254 plates, acetone–TRIS buffer (pH 7.4), listed as flupentixol): 2.829±0.194; RMW ([1]; RP-2F254 plates, acetonitrile–TRIS buffer (pH 7.4), listed as flupentixol): -0.427±0.153; RMW ([1]; RP-8F254 plates, 1,4-dioxane–TRIS buffer (pH 7.4), listed as flupentixol): 2.363±0.214; RMW ([1]; RP-8F254 plates, acetone–TRIS buffer (pH 7.4), listed as flupentixol): 2.702±0.228; RMW ([1]; RP-8F254 plates, acetonitrile–TRIS buffer (pH 7.4), listed as flupentixol): -1.165±0.108; RMW ([1]; RP-18F254 plates, 1,4-dioxane–TRIS buffer (pH 7.4), listed as flupentixol): 2.468±0.246; RMW ([1]; RP-18F254 plates, acetone–TRIS buffer (pH 7.4), listed as flupentixol): 2.762±0.175; RMW ([1]; RP-18F254 plates, acetonitrile–TRIS buffer (pH 7.4), listed as flupentixol): -1.058±0.077 |
| CN(C)CCCN1c2ccccc2Sc2ccc(C(F)(F)F)cc21 [Triflupromazine, triflupromazine] | 2.890 | 3.046 | −0.405 | 2.153 | 2.690 | −0.334 | 2.342 | 2.718 | −0.361 | – | RMW ([1]; RP-2F254 plates, 1,4-dioxane–TRIS buffer (pH 7.4), listed as triflupromazine): 2.890±0.232; RMW ([1]; RP-2F254 plates, acetone–TRIS buffer (pH 7.4), listed as triflupromazine): 3.046±0.271; RMW ([1]; RP-2F254 plates, acetonitrile–TRIS buffer (pH 7.4), listed as triflupromazine): -0.405±0.166; RMW ([1]; RP-8F254 plates, 1,4-dioxane–TRIS buffer (pH 7.4), listed as triflupromazine): 2.153±0.213; RMW ([1]; RP-8F254 plates, acetone–TRIS buffer (pH 7.4), listed as triflupromazine): 2.690±0.232; RMW ([1]; RP-8F254 plates, acetonitrile–TRIS buffer (pH 7.4), listed as triflupromazine): -0.334±0.019; RMW ([1]; RP-18F254 plates, 1,4-dioxane–TRIS buffer (pH 7.4), listed as triflupromazine): 2.342±0.261; RMW ([1]; RP-18F254 plates, acetone–TRIS buffer (pH 7.4), listed as triflupromazine): 2.718±0.168; RMW ([1]; RP-18F254 plates, acetonitrile–TRIS buffer (pH 7.4), listed as triflupromazine): -0.361±0.084 |
| OCCN1CCN(CC/C=C2/c3ccccc3Sc3ccc(Cl)cc32)CC1 [Zuclopenthixol, zuclopenthixol] | 2.459 | 2.529 | 0.582±0.089 | 1.981 | 2.206 | −1.206 | 2.110 | 2.218 | 2.411 | – | RMW ([1]; RP-2F254 plates, 1,4-dioxane–TRIS buffer (pH 7.4), listed as zuclopenthixol): 2.459±0.130; RMW ([1]; RP-2F254 plates, acetone–TRIS buffer (pH 7.4), listed as zuclopenthixol): 2.529±0.252; RMW ([1]; RP-8F254 plates, 1,4-dioxane–TRIS buffer (pH 7.4), listed as zuclopenthixol): 1.981±0.189; RMW ([1]; RP-8F254 plates, acetone–TRIS buffer (pH 7.4), listed as zuclopenthixol): 2.206±0.207; RMW ([1]; RP-8F254 plates, acetonitrile–TRIS buffer (pH 7.4), listed as zuclopenthixol): -1.206±0.139; RMW ([1]; RP-18F254 plates, 1,4-dioxane–TRIS buffer (pH 7.4), listed as zuclopenthixol): 2.110±0.176; RMW ([1]; RP-18F254 plates, acetone–TRIS buffer (pH 7.4), listed as zuclopenthixol): 2.218±0.238; RMW ([1]; RP-18F254 plates, acetonitrile–TRIS buffer (pH 7.4), listed as zuclopenthixol): 2.411±0.454 |

Further lines, with some results ahead:

| RMW [1, 3] | RMW [1, 4] | RMW [1, 5] | RMW [1, 6] | RMW [1, 7] | RMW [1, 8] | RMW [1, 9] | RMW [1, 10] | RMW [1, 11] | SMILES | logPexp [2] | other results |
| --- | --- | --- | --- | --- | --- | --- | --- | --- | --- | --- | --- |
| 2.653 | 2.834 | −0.777 | 2.340 | 2.591 | −1.230 | 2.454 | 2.702 | −0.995 | OCCN1CCN(CCCN2c3ccccc3Sc3ccc(C(F)(F)F)cc32)CC1 [Fluphenazine, fluphenazine] | 4.36 | RMW ([1]; RP-2F254 plates, 1,4-dioxane–TRIS buffer (pH 7.4), listed as fluphenazine): 2.653±0.058; RMW ([1]; RP-2F254 plates, acetone–TRIS buffer (pH 7.4), listed as fluphenazine): 2.834±0.219; RMW ([1]; RP-2F254 plates, acetonitrile–TRIS buffer (pH 7.4), listed as fluphenazine): -0.777±0.074; RMW ([1]; RP-8F254 plates, 1,4-dioxane–TRIS buffer (pH 7.4), listed as fluphenazine): 2.340±0.230; RMW ([1]; RP-8F254 plates, acetone–TRIS buffer (pH 7.4), listed as fluphenazine): 2.591±0.210; RMW ([1]; RP-8F254 plates, acetonitrile–TRIS buffer (pH 7.4), listed as fluphenazine): -1.230±0.164; RMW ([1]; RP-18F254 plates, 1,4-dioxane–TRIS buffer (pH 7.4), listed as fluphenazine): 2.454±0.279; RMW ([1]; RP-18F254 plates, acetone–TRIS buffer (pH 7.4), listed as fluphenazine): 2.702±0.189; RMW ([1]; RP-18F254 plates, acetonitrile–TRIS buffer (pH 7.4), listed as fluphenazine): -0.995±0.098 |
| 3.333 | 3.348 | −0.568 | 2.547 | 2.754 | −1.023 | 2.580 | 2.714 | −0.810 | CN1CCN(CCCN2c3ccccc3Sc3ccc(C(F)(F)F)cc32)CC1 [Trifluoperazine, trifluoperazine] | 5.03 | RMW ([1]; RP-2F254 plates, 1,4-dioxane–TRIS buffer (pH 7.4), listed as trifluoperazine): 3.333±0.328; RMW ([1]; RP-2F254 plates, acetone–TRIS buffer (pH 7.4), listed as trifluoperazine): 3.348±0.250; RMW ([1]; RP-2F254 plates, acetonitrile–TRIS buffer (pH 7.4), listed as trifluoperazine): -0.568±0.088; RMW ([1]; RP-8F254 plates, 1,4-dioxane–TRIS buffer (pH 7.4), listed as trifluoperazine): 2.547±0.277; RMW ([1]; RP-8F254 plates, acetone–TRIS buffer (pH 7.4), listed as trifluoperazine): 2.754±0.209; RMW ([1]; RP-8F254 plates, acetonitrile–TRIS buffer (pH 7.4), listed as trifluoperazine): -1.023±0.082; RMW ([1]; RP-18F254 plates, 1,4-dioxane–TRIS buffer (pH 7.4), listed as trifluoperazine): 2.580±0.271; RMW ([1]; RP-18F254 plates, acetone–TRIS buffer (pH 7.4), listed as trifluoperazine): 2.714±0.200; RMW ([1]; RP-18F254 plates, acetonitrile–TRIS buffer (pH 7.4), listed as trifluoperazine): -0.810±0.074 |

— article PMC12472637, “Use of TLC and Computational Methods to Determine Lipophilicity Parameters of Selected Neuroleptics: Comparison of Experimental and Theoretical Studies” (Pharmaceuticals, 2025)
